Values quoted from earlier work in patent US10779570B2, “Aerosol from tobacco” (PHILIP MORRIS PRODUCTS S.A., priority 2013, dated 2020).
Where two headings read alike, the source gives them in different places.

Columns and labels:
[1] = biomarker of exposure in urine
[2] = smoke constituent

Compound | Biomarker t1/2β ([1]; plasma or blood) [h] | Organ Class toxicity [2] | further results
S-benzyl-mercapturic acid | 9 | – | –
C=CC=C [1,3-Butadiene] | – | CA, RT, RDT | –
[C-]#[O+] [Carbon monoxide] | – | RDT, CT | –
CC(=O)N[C@@H](CSCCCO)C(=O)O [3-Hydroxypropyl-mercapturic acid] | 10 | – | –
C=CC=O [Acrolein] | – | RT, CT | –
C=CC#N [Acrylonitrile] | – | CA, RT | –
Cc1ccccc1 [Toluene] | – | RT, RDT | –
CC(=O)N[C@@H](CSCCC#N)C(=O)O [2-Cyanoethylmercapturic acid] | 17 | – | –
CC(=O)N[C@@H](CSC(C)CCO)C(=O)O (stereo partly drawn) [3-Hydroxy-1-methylpropyl-mercapturic acid] | – | – | Biomarker t1/2β [1]: 48 h
C1CO1 [Ethylene Oxide] | – | CA, RT, RDT | –
Nc1ccc2ccccc2c1 [2-Aminonaphthalene] | 9 | – | –
O=NN1CCC[C@H]1c1cccnc1 [NNN, N-nitrosonornicotine] | 15 | – | –
CC(=O)N[C@@H](CSCCO)C(=O)O [2-Hydroxyethyl-mercapturic acid] | 5 | – | –
Nc1ccc(-c2ccccc2)cc1 [4-Aminobiphenyl] | 26 | – | –
c1ccccc1 [Benzene] | – | CA, CT, RDT | –
